From PMC12524408 (International Journal of Molecular Sciences, 2025)

Experiments:
[1] = PEG-AM plasma concentration, Study No. P170454; type: in vivo; conditions: 1 nmol/kg single i.v.; mouse; fluorescence immunoassay
Excerpt: Figure 4 Dose-dependent effects of intravenous PEG-AM administration in DSS-induced colitis (Study No. P170454). (a) Overview of the experimental design. Groups: vehicle (n = 10), PEG-AM 1 nmol/kg (n = 10), 5 nmol/kg (n = 10), 25 nmol/kg (n = 10). (b) Total inflammation scores on day 8. (c) Colon length. (d) Colon weight-to-length ratio. (e) PEG-AM plasma concentrations on day 8.
Colitis was induced with 3% (w/v) DSS (MW 5000) in drinking water for seven days. PEG-AM (1.0, 5.0, and 25 nmol/kg) or saline (control) was administered intravenously one day before DSS treatment. Each group included 10 mice. Stool consistency, bleeding, and body weight were evaluated on days −1, 0, 3, 5, and 7. A total inflammation score was calculated. Mice were anesthetized with 3% isoflurane (Zoetis Japan, Tokyo, Japan), and the colon was excised on day 7.

DSS-induced colitis = assay: Therapeutic effect of PEG-AM after onset of DSS colitis (Study No. P200487); type: in vivo, mouse; conditions: vs control, n = 6
Description: DSS was administered for five days to induce colitis, followed by the administration of PEG-AM or saline on day 5. DSS was replaced with water on day 6 to evaluate recovery. […] (a) Overview of the experimental design. Groups: vehicle (n = 6), PEG-AM 25 nmol/kg (n = 6), 250 nmol/kg (n = 6). (b) Time course of total inflammation scores after PEG-AM administration. (c) Colon length, * p < 0.05, one-way ANOVA followed by Dunnett’s multiple-comparisons test. ns, not significant. (d) Colon weight-to-length ratio, * p < 0.05, one-way ANOVA followed by Dunnett’s multiple-comparisons test. ns, not significant. (e) PEG-AM plasma concentrations on day 12. (f–i) Fold changes in gene expression of RAMP1 (f), RAMP2 (g), RAMP3 (h), and CLR (i). To evaluate the pharmacological effects of PEG-AM, three animal studies were conducted by the LSI Medience Corporation following the Animal Welfare Act and institutional approval. Seven-week-old male C57BL/6J JCL mice (CLEA Japan, Inc., Tokyo, Japan) were used in all studies and were housed under pathogen-free conditions. Colitis was induced with 2% (w/v) DSS (MW 36,000–50,000) for five days. On day 5, the mice were assigned to three groups and intravenously administered one of PEG-AM (25 or 250 nmol/kg) or saline. On day 6, DSS was replaced with water. Clinical symptoms were evaluated on days 5, 8, 10, and 12. The inflammation scores were calculated. Colons were collected on day 12 under isoflurane anesthesia.

RAMP1, RAMP2, RAMP3, CLR = assay: Gene expression of receptor components in distal colon, Study No. P200487; type: in vivo, mouse; conditions: 25 and 250 nmol/kg i.v., day 12, qPCR
Excerpt: Figure 6 Therapeutic effects of PEG-AM administered after disease onset in DSS-induced colitis (Study No. P200487). (a) Overview of the experimental design. Groups: vehicle (n = 6), PEG-AM 25 nmol/kg (n = 6), 250 nmol/kg (n = 6). (b) Time course of total inflammation scores after PEG-AM administration. (c) Colon length, * p < 0.05, one-way ANOVA followed by Dunnett’s multiple-comparisons test. ns, not significant. (d) Colon weight-to-length ratio, * p < 0.05, one-way ANOVA followed by Dunnett’s multiple-comparisons test. ns, not significant. (e) PEG-AM plasma concentrations on day 12. (f–i) Fold changes in gene expression of RAMP1 (f), RAMP2 (g), RAMP3 (h), and CLR (i).
After measuring colon length and weight, distal colon tissue was collected, immersed in RNAlater (Thermo Fisher Scientific K.K.), and stored at −80 °C until RNA extraction. Total RNA was extracted using the RNeasy Micro Kit (Qiagen, Singapore) and quantified using a DeNovix DS-11 Microvolume Spectrophotometer. cDNA was synthesized from 2 μg of total RNA using a high-capacity cDNA Reverse Transcription Kit (Thermo Fisher Scientific K.K.). Quantitative PCR was performed using the StepOnePlus Real-Time PCR System (Applied Biosystems, Waltham, MA, USA) and TaqMan Gene Expression Assays for mouse RAMP1, RAMP2, RAMP3, CLR (CALCRL), and GAPDH (internal control). […]

40 kDa PEGylated adrenomedullin [PEG-AM]
PEG-AM plasma concentration on day 8 [1]: undetectable | Colon weight per unit length (DSS-induced colitis; 250 nmol/kg i.v. on day 5 after DSS onset, day 12, p = 0.039, Dunnett's test): significantly lower | Total inflammation scores over time (DSS-induced colitis; 25 or 250 nmol/kg i.v. on day 5 after 2% DSS (MW 36,000-50,000) for five days, days 5-12): did not significantly alter | Colon length (DSS-induced colitis; i.v. on day 5 after DSS onset, day 12, p = 0.014, one-way ANOVA with Dunnett's test, dose group not given): significantly longer | RAMP2 expression (RAMP1, RAMP2, RAMP3, CLR): increased in a dose-dependent manner; however, the increase was not statistically significant | Receptor component expression (RAMP1, RAMP2, RAMP3, CLR) (RAMP1, RAMP2, RAMP3, CLR): No downregulation
